Patent US10335503B2, “Compound that specifically binds to AMPA receptor” (Public University Corporation Yokohama City University, priority 2015, dated 2019)
*1 amine or outer side, *2 acyl side, *3 side chain or, on linkers, in order; H or OH if unused. Where a SMILES comes first, the peptide text is derived from it. Where no end group is shown, it is not given here. [ ]: non-standard residue; d: D form. NMeF = CN[C@@H](Cc1ccccc1)C(=O)O; Suc = O=C(CCC(=O)[*:2])[*:1]

Legend:
Details in all cases: Positive substance, concentration not given
Nicotinic = experiment: Receptor binding panel: Nicotinic; design: species or system Human
Neurokinin NK1 = Neurokinin NK1 (Homo sapiens, UniProt P25103); experiment: Receptor binding panel: Neurokinin NK1
Sigma σ1 = Sigma σ1 (Homo sapiens, UniProt Q99720); experiment: Receptor binding panel: Sigma σ1
Histamine H3 = Histamine H3 (Homo sapiens, UniProt Q9Y5N1); experiment: Receptor binding panel: Histamine H3
Glutamate (AMPA) = experiment: Receptor binding panel: Glutamate (AMPA)
Histamine H2 = Histamine H2 (Homo sapiens, UniProt P25021); experiment: Receptor binding panel: Histamine H2
GABA A (BZ central) = experiment: Receptor binding panel: GABA A (BZ central)
Na channel site 2 = experiment: Receptor binding panel: Na channel site 2
K Channel KATP = experiment: Receptor binding panel: K Channel KATP
Sigma σ2 = Sigma σ2 (Homo sapiens, UniProt Q5BJF2); experiment: Receptor binding panel: Sigma σ2
Serotonin transporter = Serotonin transporter (Homo sapiens, UniProt P31645); experiment: Receptor binding panel: Serotonin transporter
Glutamate (Kainate) = experiment: Receptor binding panel: Glutamate (Kainate)
Serotonin 5HT2A = Serotonin 5HT2A (Homo sapiens, UniProt P28223); experiment: Receptor binding panel: Serotonin 5HT2A
[1] = tested on: Glutamate (NMDA agonist site); experiment: Receptor binding panel: Glutamate (NMDA agonist site)
Leukotriene B4 = experiment: Receptor binding panel: Leukotriene B4
Leukotriene D4 = experiment: Receptor binding panel: Leukotriene D4
[2] = tested on: Glutamate (NMDA glycine site); experiment: Receptor binding panel: Glutamate (NMDA glycine site)
Melatonin MT1 = Melatonin MT1 (Homo sapiens, UniProt P48039); experiment: Receptor binding panel: Melatonin MT1
GABA A (Agonist site) = experiment: Receptor binding panel: GABA A (Agonist site)
Opiate δ = Opiate δ (Homo sapiens, UniProt P41143); experiment: Receptor binding panel: Opiate δ
α2A-Adrenergic = α2A-Adrenergic (Homo sapiens, UniProt P08913); experiment: Receptor binding panel: α2A-Adrenergic
α2C-Adrenergic = α2C-Adrenergic (Homo sapiens, UniProt P18825); experiment: Receptor binding panel: α2C-Adrenergic
Neurokinin NK3 = Neurokinin NK3 (Homo sapiens, UniProt P29371); experiment: Receptor binding panel: Neurokinin NK3
Serotonin 5HT3 = Serotonin 5HT3 (Homo sapiens, UniProt P46098); experiment: Receptor binding panel: Serotonin 5HT3
Estrogen = experiment: Receptor binding panel: Estrogen
Dopamine D2 short = Dopamine D2 short (Homo sapiens, UniProt P14416); experiment: Receptor binding panel: Dopamine D2 short
[3] = tested on: Glutamate (NMDA phencyclidine site); experiment: Receptor binding panel: Glutamate (NMDA phencyclidine site)
CRF1 = biological target: T1, CRF1 (Homo sapiens, UniProt P34998); experiment: Receptor binding panel: CRF1
T1 sequence (P34998 24-415): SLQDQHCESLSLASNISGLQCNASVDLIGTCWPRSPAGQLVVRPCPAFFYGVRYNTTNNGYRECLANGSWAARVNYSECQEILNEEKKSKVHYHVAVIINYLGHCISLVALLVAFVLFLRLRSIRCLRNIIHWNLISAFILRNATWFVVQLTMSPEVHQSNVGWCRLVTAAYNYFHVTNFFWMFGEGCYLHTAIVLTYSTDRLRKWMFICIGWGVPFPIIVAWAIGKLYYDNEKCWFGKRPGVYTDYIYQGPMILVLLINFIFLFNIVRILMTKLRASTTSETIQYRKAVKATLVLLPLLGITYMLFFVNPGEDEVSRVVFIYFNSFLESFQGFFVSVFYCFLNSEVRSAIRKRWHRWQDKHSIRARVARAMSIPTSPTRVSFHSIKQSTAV

Sequence of Neurokinin NK3 (P29371 whole entry): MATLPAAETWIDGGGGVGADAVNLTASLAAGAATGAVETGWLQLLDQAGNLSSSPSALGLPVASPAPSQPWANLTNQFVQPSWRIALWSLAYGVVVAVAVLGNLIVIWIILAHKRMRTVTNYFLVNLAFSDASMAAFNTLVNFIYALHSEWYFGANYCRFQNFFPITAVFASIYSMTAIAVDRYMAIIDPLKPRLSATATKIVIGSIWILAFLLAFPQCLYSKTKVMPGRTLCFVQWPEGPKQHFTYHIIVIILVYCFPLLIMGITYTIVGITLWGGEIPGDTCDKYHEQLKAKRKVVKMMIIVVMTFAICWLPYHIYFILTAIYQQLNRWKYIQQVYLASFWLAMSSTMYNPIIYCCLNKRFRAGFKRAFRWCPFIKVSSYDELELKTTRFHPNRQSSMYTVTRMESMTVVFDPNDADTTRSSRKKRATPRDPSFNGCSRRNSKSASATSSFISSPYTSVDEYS
Sequence of Histamine H2 (P25021 whole entry): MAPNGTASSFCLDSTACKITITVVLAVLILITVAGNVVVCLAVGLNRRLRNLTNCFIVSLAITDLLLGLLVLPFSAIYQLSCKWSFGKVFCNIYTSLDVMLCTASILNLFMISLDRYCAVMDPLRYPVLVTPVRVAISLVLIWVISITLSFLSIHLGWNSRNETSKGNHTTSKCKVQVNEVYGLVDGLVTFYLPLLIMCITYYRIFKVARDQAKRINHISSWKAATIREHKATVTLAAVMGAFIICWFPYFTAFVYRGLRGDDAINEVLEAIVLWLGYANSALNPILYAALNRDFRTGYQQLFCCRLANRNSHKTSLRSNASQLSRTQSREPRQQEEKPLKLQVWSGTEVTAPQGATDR
Sequence of Serotonin transporter (P31645 whole entry): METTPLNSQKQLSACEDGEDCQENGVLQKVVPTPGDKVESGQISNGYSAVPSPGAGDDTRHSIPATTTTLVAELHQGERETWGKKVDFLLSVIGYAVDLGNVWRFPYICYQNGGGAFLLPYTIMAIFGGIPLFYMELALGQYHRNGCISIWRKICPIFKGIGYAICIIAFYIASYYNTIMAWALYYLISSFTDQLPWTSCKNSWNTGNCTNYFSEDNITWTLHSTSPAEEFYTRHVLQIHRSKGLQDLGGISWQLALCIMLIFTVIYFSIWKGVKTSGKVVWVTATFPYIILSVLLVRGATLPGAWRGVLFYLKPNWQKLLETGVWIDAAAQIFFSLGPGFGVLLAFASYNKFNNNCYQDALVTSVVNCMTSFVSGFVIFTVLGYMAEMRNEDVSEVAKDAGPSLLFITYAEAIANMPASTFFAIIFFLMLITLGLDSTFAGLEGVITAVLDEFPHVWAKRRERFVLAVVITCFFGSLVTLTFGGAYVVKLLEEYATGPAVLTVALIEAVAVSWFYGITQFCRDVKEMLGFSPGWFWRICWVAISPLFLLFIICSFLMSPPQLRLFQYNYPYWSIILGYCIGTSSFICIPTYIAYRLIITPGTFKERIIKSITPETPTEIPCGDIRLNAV
Sequence of Sigma σ2 (Q5BJF2 whole entry): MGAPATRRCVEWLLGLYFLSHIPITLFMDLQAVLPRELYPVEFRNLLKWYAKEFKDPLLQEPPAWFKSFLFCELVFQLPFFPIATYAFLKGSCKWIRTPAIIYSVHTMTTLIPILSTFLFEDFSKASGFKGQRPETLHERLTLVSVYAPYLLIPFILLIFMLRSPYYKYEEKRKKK
Sequence of Melatonin MT1 (P48039 whole entry): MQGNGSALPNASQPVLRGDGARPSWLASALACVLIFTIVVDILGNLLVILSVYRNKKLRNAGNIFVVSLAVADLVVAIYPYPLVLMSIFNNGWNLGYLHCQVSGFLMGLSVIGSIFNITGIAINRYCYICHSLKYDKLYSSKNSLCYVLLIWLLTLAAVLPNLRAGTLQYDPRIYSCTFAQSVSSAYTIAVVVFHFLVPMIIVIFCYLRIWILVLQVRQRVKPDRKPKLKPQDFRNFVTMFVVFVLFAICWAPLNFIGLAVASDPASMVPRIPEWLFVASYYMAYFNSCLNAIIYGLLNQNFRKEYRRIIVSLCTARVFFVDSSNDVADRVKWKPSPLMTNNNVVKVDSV
Sequence of Opiate δ (P41143 whole entry): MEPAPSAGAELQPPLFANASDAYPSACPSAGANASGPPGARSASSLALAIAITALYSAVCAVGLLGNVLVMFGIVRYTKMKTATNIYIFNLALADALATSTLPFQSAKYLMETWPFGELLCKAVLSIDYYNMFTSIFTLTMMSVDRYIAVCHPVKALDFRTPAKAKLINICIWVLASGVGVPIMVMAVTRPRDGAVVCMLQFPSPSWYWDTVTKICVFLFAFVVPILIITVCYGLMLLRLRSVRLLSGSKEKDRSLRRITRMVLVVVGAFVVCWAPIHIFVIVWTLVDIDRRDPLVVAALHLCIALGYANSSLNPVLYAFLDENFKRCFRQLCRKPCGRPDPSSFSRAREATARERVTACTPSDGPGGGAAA
Sequence of α2A-Adrenergic (P08913 whole entry): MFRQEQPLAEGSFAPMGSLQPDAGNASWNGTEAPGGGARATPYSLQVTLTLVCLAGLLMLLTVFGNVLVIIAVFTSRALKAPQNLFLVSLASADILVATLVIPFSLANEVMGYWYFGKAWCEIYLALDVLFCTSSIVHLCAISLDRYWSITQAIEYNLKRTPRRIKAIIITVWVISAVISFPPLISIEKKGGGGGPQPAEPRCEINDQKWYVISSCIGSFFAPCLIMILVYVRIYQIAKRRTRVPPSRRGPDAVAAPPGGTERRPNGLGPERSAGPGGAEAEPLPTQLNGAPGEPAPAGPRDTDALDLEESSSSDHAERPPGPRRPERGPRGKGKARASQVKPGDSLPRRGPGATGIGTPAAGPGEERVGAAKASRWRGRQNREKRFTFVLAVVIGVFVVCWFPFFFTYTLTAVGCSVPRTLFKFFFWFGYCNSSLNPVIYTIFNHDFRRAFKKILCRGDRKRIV
Sequence of Serotonin 5HT2A (P28223 whole entry): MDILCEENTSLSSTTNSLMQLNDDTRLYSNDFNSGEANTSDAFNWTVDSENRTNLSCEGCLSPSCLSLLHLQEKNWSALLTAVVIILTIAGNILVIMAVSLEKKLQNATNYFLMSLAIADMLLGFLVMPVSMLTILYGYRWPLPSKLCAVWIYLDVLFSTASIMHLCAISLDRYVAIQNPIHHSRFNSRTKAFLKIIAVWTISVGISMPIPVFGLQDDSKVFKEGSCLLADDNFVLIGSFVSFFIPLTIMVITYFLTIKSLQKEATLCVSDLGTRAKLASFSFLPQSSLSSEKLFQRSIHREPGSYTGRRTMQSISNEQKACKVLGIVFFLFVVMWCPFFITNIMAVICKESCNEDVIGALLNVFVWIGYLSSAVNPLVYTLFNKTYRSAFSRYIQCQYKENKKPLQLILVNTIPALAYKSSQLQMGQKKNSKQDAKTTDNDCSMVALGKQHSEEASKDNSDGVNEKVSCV
Sequence of Dopamine D2 short (P14416 1-414 isoform P14416-2): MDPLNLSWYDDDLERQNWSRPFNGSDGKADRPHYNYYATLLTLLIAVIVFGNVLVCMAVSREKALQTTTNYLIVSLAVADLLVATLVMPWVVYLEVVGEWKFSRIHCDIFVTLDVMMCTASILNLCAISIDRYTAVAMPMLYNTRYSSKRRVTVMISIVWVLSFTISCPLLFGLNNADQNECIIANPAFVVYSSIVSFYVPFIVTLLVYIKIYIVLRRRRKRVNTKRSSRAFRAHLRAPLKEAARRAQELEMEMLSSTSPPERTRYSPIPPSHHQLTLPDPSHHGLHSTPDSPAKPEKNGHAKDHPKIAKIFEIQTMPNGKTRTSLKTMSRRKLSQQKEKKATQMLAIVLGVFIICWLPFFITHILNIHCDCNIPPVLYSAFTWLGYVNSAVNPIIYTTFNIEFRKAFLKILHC
Sequence of Sigma σ1 (Q99720 whole entry): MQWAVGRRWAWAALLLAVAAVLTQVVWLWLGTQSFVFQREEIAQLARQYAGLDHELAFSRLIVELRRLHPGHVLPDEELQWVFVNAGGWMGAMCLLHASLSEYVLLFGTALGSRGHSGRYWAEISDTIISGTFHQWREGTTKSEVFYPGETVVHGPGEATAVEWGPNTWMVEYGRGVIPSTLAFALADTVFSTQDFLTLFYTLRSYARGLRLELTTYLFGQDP
Sequence of Histamine H3 (Q9Y5N1 whole entry): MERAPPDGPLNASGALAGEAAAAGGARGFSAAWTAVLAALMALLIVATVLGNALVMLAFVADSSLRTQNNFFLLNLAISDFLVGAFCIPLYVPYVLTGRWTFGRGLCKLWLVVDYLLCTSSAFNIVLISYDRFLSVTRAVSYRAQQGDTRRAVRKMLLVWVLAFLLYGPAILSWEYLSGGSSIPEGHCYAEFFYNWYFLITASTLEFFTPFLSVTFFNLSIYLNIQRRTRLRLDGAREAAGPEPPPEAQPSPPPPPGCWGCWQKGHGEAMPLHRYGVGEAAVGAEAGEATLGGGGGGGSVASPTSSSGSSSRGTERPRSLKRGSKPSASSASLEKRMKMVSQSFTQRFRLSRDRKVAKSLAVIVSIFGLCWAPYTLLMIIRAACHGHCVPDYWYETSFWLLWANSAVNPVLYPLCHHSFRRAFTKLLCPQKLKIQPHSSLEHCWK
Sequence of Neurokinin NK1 (P25103 whole entry): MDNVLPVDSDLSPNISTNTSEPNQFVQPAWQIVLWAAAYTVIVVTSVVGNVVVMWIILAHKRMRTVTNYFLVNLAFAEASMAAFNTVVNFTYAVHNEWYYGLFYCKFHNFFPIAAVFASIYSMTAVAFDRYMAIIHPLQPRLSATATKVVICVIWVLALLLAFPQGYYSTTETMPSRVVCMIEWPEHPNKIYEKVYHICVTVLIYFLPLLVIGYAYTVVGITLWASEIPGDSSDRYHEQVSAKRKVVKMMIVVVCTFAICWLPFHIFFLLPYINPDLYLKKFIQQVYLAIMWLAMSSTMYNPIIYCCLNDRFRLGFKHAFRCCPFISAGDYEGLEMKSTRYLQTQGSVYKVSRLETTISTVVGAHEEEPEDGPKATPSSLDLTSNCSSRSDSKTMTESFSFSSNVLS

## Clc1ccc(C2CC3CCC2N3)cn1 (racemic) [(±)-Epibatidine, reference compound]
Nicotinic
  Inhibition (%): 98.46%

## Ic1ccccc1CN[C@@H]1C2CCN(CC2)[C@@H]1C(c1ccccc1)c1ccccc1 (racemic) [L-703,606, reference compound]
Neurokinin NK1
  Inhibition (%): 94.45%

## CC(C)=CCN1CCC2(C)c3cc(O)ccc3CC1C2C (single isomer, unassigned; (+)) [(+)-Pentazocine, reference compound]
Sigma σ1
  Inhibition (%): 100.00%

## C[C@@H](N)Cc1c[nH]cn1 [(R)(−)-α-Methyl histamine, reference compound]
Histamine H3
  Inhibition (%): 98.17%

## Cc1onc(O)c1C[C@H](N)C(=O)O [(S)-AMPA, reference compound]
Glutamate (AMPA)
  Inhibition (%): 100.00%

## CN/C(=N/CCSCc1nc[nH]c1C)NC#N [Cimetidine, reference compound]
Histamine H2
  Inhibition (%): 100.00%

## CN1C(=O)CN=C(c2ccccc2)c2cc(Cl)ccc21 [Diazepam, reference compound]
GABA A (BZ central)
  Inhibition (%): 100.00%

## CCCCOc1cc(C(=O)NCCN(CC)CC)c2ccccc2n1 [Dibucaine, reference compound]
Na channel site 2
  Inhibition (%): 97.37%

## COc1ccc(Cl)cc1C(=O)NCCc1ccc(S(=O)(=O)NC(=O)NC2CCCCC2)cc1 [Glybenclamide, reference compound]
K Channel KATP
  Inhibition (%): 100.00%

## O=C(CCCN1CCC(O)(c2ccc(Cl)cc2)CC1)c1ccc(F)cc1 [Haloperidol, reference compound]
Sigma σ2
  Inhibition (%): 100.00%

## CN(C)CCCN1c2ccccc2CCc2ccccc21 [Imipramine, reference compound]
Serotonin transporter
  Inhibition (%): 100.00%

## C=C(C)[C@H]1CN[C@H](C(=O)O)[C@H]1CC(=O)O [Kainic acid, reference compound]
Glutamate (Kainate)
  Inhibition (%): 100.00%

## O=C(c1ccc(F)cc1)C1CCN(CCn2c(=O)[nH]c3ccccc3c2=O)CC1 [Ketanserin, reference compound]
Serotonin 5HT2A
  Inhibition (%): 99.20%

## N[C@@H](CCC(=O)O)C(=O)O [L-Glutamic acid, reference compound]
[1]
  Inhibition (%): 100.00%

## CCCCC/C=C\C[C@@H](O)/C=C/C=C/C=C\[C@@H](O)CCCC(=O)O [Leukotriene B4, reference compound]
Leukotriene B4
  Inhibition (%): 98.89%

## CCCCC/C=C\C\C=C/C=C/C=C/[C@@H](SC[C@H](N)C(=O)NCC(=O)O)[C@@H](O)CCCC(=O)O [Leukotriene D4, reference compound]
Leukotriene D4
  Inhibition (%): 100.00%

## O=C(O)/C(=C/c1c(C(=O)O)[nH]c2cc(Cl)cc(Cl)c12)c1ccccc1 [MDL105,519, reference compound]
[2]
  Inhibition (%): 100.00%

## COc1ccc2[nH]cc(CCNC(C)=O)c2c1 [Melatonin, reference compound]
Melatonin MT1
  Inhibition (%): 100.00%

## NCc1cc(=O)[nH]o1 [Muscimol, reference compound]
GABA A (Agonist site)
  Inhibition (%): 97.63%

## Oc1ccc2c3c1O[C@H]1c4oc5ccccc5c4C[C@@]4(O)[C@@H](C2)N(CC2CC2)CC[C@]314 [Naltriben, reference compound]
Opiate δ
  Inhibition (%): 98.32%

## COC(=O)[C@H]1[C@H]2C[C@H]3c4[nH]c5ccccc5c4CCN3C[C@H]2CC[C@@H]1O [Rauwolscine, reference compound]
α2A-Adrenergic
  Inhibition (%): 100.00%
α2C-Adrenergic
  Inhibition (%): 100.00%

## CSCC[C@H](NC(=O)[C@H](CC(C)C)NC(=O)CNC(=O)[C@H](Cc1ccccc1)N(C)C(=O)[C@H](Cc1ccccc1)NC(=O)[C@H](CC(=O)O)NC(=O)CCC(=O)O)C(N)=O [Senktide, reference compound] (Suc-DF[NMeF]GLM-NH2)
Neurokinin NK3
  Inhibition (%): 98.43%

## CN1[C@@H]2CC[C@H]1C[C@@H](OC(=O)c1c[nH]c3ccccc13)C2 [Tropisetron, reference compound]
Serotonin 5HT3
  Inhibition (%): 99.80%

## C[C@]12CC[C@@H]3c4ccc(O)cc4CC[C@H]3[C@@H]1CC[C@@H]2O [β-Estradiol, reference compound]
Estrogen
  Inhibition (%): 100.00%

## (+)-Butaclamol [reference compound]
Dopamine D2 short
  Inhibition (%): 100.00%

## (+)-MK-801 [reference compound]
[3]
  Inhibition (%): 100.00%

## Urocortin human (DNPSLSIDLTFHLLRTLLELARTQSQRERAEQNRIIFDSV; ends and bridges not checked; UniProt P55089 83-122, looked up) [reference compound]
CRF1
  Inhibition (%): 100.00%
